Key:
MCF7 = assay: Antiproliferative activity against human MCF7 cells assessed as inhibition of cell proliferation measured after 72 hrs by MTT assay; type: functional, cell-based; conditions: MCF7, 72 h
MGC-803 [1] = assay: Cell cycle arrest in human MGC-803 cells assessed as accumulation of cells in G0/G1 phase at 3 uM measured after 24 hrs by PI staining based flow cytometry assay (reference value: 49.39%); type: functional
MGC-803 [2] = assay: Induction of apoptosis in human MGC-803 cells assessed by cell rounding at 0.75 to 3 uM measured after 48 hrs by Hoechst 33342 staining based microscopic method; type: functional; conditions: dose 0.75-3 µM
MGC-803 [3] = assay: Induction of apoptosis in human MGC-803 cells assessed by formation of apoptotic bodies at 0.75 to 3 uM measured after 48 hrs by Hoechst 33342 staining based microscopic method; type: functional, cell-based; conditions: dose 0.75-3 µM
MGC-803 [4] = assay: Induction of apoptosis in human MGC-803 cells assessed as viable cells at 0.75 uM measured after 48 hrs by Annexin V-FITC/PI staining based flow cytometry method (reference value: 92.3 %); type: functional; conditions: read-out: Activity
MGC-803 [5] = assay: Induction of apoptosis in human MGC-803 cells assessed as early apoptotic cells at 1.5 uM measured after 48 hrs by Annexin V-FITC/PI staining based flow cytometry method (reference value: 0.992 %); type: functional
MGC-803 [6] = assay: Induction of apoptosis in human MGC-803 cells assessed as necrotic cells at 1.5 uM measured after 48 hrs by Annexin V-FITC/PI staining based flow cytometry method (reference value: 3.60 %); type: functional
MGC-803 [7] = assay: Induction of apoptosis in human MGC-803 cells assessed as viable cells at 3 uM measured after 48 hrs by Annexin V-FITC/PI staining based flow cytometry method (reference value: 92.3 %); type: functional; conditions: read-out: Activity
MGC-803 [8] = assay: Induction of apoptosis in human MGC-803 cells assessed as increase in cleaved caspase expression at 0.75 to 3 uM measured after 48 hrs by western blot assay; type: functional, cell-based; conditions: dose 0.75-3 µM
[9] = Toxicity in mouse assessed as effect on spleen at 2 mg/kg, ig measured after 2 weeks by H and E staining based microscopic method; type: organism-based; conditions: in vivo, po, 336 h
[10] = Toxicity in mouse assessed as effect on kidney at 2 mg/kg, ig measured after 2 weeks by H and E staining based microscopic method; type: organism-based; conditions: in vivo, po, 336 h
MGC-803 [11] = assay: Antiproliferative activity against human MGC-803 cells assessed as cell viability measured at 0.75 to 3 uM by MTT assay; type: functional, cell-based; conditions: dose 0.75-3 µM, time 24-72 hrs, TDE = time-dependent effect

SMILES: Cc1cc(Nc2ccn(Cc3nc(C)c4ccccc4n3)n2)n2nc(SCc3ccc(Br)cc3)nc2n1
- IC50 (MCF7): 1430 nM
- Activity (MGC-803 [1]): 69.99%
- Activity (MGC-803 [2]): Dose-Dependent Effect
- Activity (MGC-803 [3]): Dose-Dependent Effect
- viability at 0.75 µM (MGC-803 [4]): 89.1%
- Activity (MGC-803 [5]): 6.85%
- Activity (MGC-803 [6]): 2.47%
- viability at 3 µM (MGC-803 [7]): 28%
- Activity (MGC-803 [8]): Dose-Dependent Effect
- Activity [9]: Non-Toxic
- Activity [10]: Non-Toxic
- Activity (MGC-803 [11]): Tde

From ChEMBL document CHEMBL4819020, “Discovery of [1,2,4]triazolo[1,5-a]pyrimidines derivatives as potential anticancer agents” (Eur J Med Chem, 2021)
